Test results as given in paper PMC7760514, “Fatty Acid Conjugation Leads to Length-Dependent Antimicrobial Activity of a Synthetic Antibacterial Peptide (Pep19-4LF)” (Antibiotics, 2020).
Values after ≈ are worked out from the molar mass of the structure shown. Peptide text beside a SMILES is read from it. * marks the point of attachment. Stearoyl = CCCCCCCCCCCCCCCCCC(=O)*; Palmitoyl = CCCCCCCCCCCCCCCC(=O)*; Myristoyl = CCCCCCCCCCCCCC(=O)*; Lauroyl = CCCCCCCCCCCC(=O)*; Decanoyl = CCCCCCCCCC(=O)*; Octanoyl = CCCCCCCC(=O)*

Legend:
[1] = tested on: Acinetobacter bohemicus (DSM 100419); assay: Minimal inhibitory concentration (MIC), broth microdilution; assay type: cell-based; parameters: key to MIC value: MIC in μg/mL (lowest concentration without visible growth); conditions: 30 ± 1 °C; for MIC value: Table S2, n=3, no unit given (main text uses µg/mL); for MIC: broth microdilution, cation-adjusted MHB II, 5 × 10^5 cfu/mL, read after 18 to 20 h, n = 3
Description: (§1) Minimal inhibitory concentrations (MICs) were determined against Gram-positive Enterococcus faecium vanA (UL 602570*, clinical isolate from Institute for Medical Microbiology and Hygiene, Heidelberg University Hospital, Heidelberg, Germany), Staphylococcus aureus (ATCC 25923), Rothia kristinae (DSM 20032), and Gram-negative Acinetobacter bohemicus (DSM 100419) (all obtained from the Department of Infectious Diseases, Medical Microbiology and Hygiene, Heidelberg University, Heidelberg, Germany) in a 96-well polypropylene plate (650261 Greiner Bio-One GmbH, Frickenhausen, Germany) according to European Committee on Antimicrobial Susceptibility Testing (EUCAST) and The Clinical & Laboratory Standards Institute (CLSI) guidelines. Briefly, the stock solutions of the peptide conjugates in water were adjusted to a concentration of 1.28 mg/mL. Starting with the highest concentration of 64 μg/mL in 96-well polypropylene plates, dilution series in cation-adjusted Mueller–Hinton broth (MHB II; Sigma Aldrich, Steinheim, Germany) were performed, resulting in the lowest concentration of 0.125 μg/mL. A logarithmic growing bacterial culture was adjusted to a McFarland corresponding to 1 × 10^8 cfu/mL using a McFarland counter (DensiCHEK® plus, bioMerieux, Marcy-l’Étoile, France). Finally, a bacterial suspension of 1 × 10^6 cfu/mL (further diluted in MHB II) was added to each peptide-conjugate concentration. Thus, the final bacterial concentration in each well was 5 × 10^5 cfu/mL. The bacteria were incubated at 37 ± 1 °C (for A. bohemicus: 30 ± 1 °C) overnight and the bacterial growth was analyzed after 18 to 20 h. The MIC was defined as the lowest concentration of substance without any visible growth. Vancomycin and colistin sulfate were purchased from Sigma-Aldrich Chemie GmbH, München, Germany and Carl Roth GmbH, Karlsruhe, Germany.

[2] = tested on: Acinetobacter bohemicus (DSM 100419); assay: Minimal bactericidal concentration (MBC); assay type: cell-based; conditions: Table S2, n=3; unit inferred; lowest concentration killing 99.9% of the inoculum; agar 24 h, 30 ± 1 °C
Description: (§2) Minimal bactericidal concentrations (MBCs) were determined by pipetting 3 µL of each broth dilution solution without visible growth onto a new agar plate. The agar plates were incubated at 37 ± 1 °C (for A. bohemicus: 30 ± 1 °C) for 24 h and were again analyzed with respect to bacterial growth. MBC is defined as the lowest concentration killing 99.9% of the inoculum.

[3] = tested on: Staphylococcus aureus (ATCC 25923); assay: Minimal inhibitory concentration (MIC), broth microdilution; assay type: cell-based; conditions: cation-adjusted MHB II, 5 × 10^5 cfu/mL, 37 ± 1 °C, read after 18 to 20 h, n = 3
Description: as §1

[4] = tested on: Rothia kristinae (DSM 20032); assay: as above; assay type: cell-based; conditions: Table 3 of supplement, n=3; unit inferred; 37 ± 1 °C
Description: as §1

[5] = tested on: Rothia kristinae (DSM 20032); assay: Minimal bactericidal concentration (MBC); assay type: cell-based; conditions: Table 3 of supplement, n=3; unit inferred; lowest concentration killing 99.9% of the inoculum; agar 24 h, 37 ± 1 °C
Description: as §2

[6] = tested on: Rothia kristinae (DSM 20032); assay: Time-kill studies; assay type: cell-based; conditions: for change in number of cfu/mL: 0.5 × MIC, 0 to 8 h
Description: Time–kill studies were performed in accordance with CLSI guidelines. Therefore, Rothia kristinae DSM 20032 was adjusted to a concentration of 1 x 10^8 cfu/mL and further diluted to 1 × 10^6 cfu/mL in cation-adjusted MHB II. According to the previous determined MIC values of Pep19-4LF, C11-Pep19-4LF, and bacitracin (positive control) (Sigma Aldrich Chemie GmbH, München, Germany), samples were taken for 4 × MIC, 2 × MIC, 1 × MIC, and 0.5 × MIC after 30 min, 1 h, 2 h, 4 h, and 8 h. These samples were diluted in sterile saline and 10 µL of each sample was loaded onto agar plates. A bacterial suspension of 1 × 10^6 cfu/mL served as a growth control. Incubation occurred at 37 ± 1 °C and all counted colonies were recalculated to the colony number in the original inoculum.

[7] = assay type: physicochemical
Source text: The high MIC value of Pep19-short indicates the importance of a hydrophobic moiety for this synthetic antimicrobial peptide. […] If the length of the fatty acid is too short, the interaction between the peptide conjugate and components of the bacterial cell membrane might be unfavorable, thus leading to loss of efficiency. Fatty acids of medium chain length enable a stable plateau of low MIC values, indicating a more efficient interaction between the peptide conjugate and bacterial cells. […] A detailed interaction between Pep19 peptides and membrane-bound toxins was previously described by Correa et al.. […] A hypothesized mechanism for this interaction represents the reorganization of the bacterial membrane leading in an inability to maintain the osmotic pressure. Here, the positively-charged amino acids of the peptide conjugate might interact with the negatively-charged compounds of the bacterial cell wall and the hydrophobic part interacts with hydrophobic lipids of the bacterial membrane. Several mechanisms for a membrane disruption by amphiphilic peptides were further described by Sato and Feix. With respect to the parent peptide Pep19-4LF, the hydrophobic moiety was located at the C-terminus. As the synthesis leads to peptides that are linked to the resin via their C-terminus, the fatty acids were linked to the free N-terminus of the peptide. […]

[8] = rat, in vivo, iv
Description: For this purpose, the tyrosine residues of the peptides were radiolabeled with ^125I (Hartmann Analytic GmbH, Braunschweig, Germany) using the chloramine-T method [28]. Free ^125I was separated by preparative HPLC as previously described by Schieck et al. [22]. Approximately 2 to 4 MBq of the radiolabeled peptides was injected intravenously into the tail vein and images were recorded immediately post injection and after 1 h, 2 h, 3 h, 5 h, and 24 h. Scintigraphical images were obtained by using a γ-camera (Gamma Imager, Biospace Lab, Paris, France).

[9] = tested on: Enterococcus faecium (UL602570*, clinical isolate, vanA-resistant); assay: Minimal inhibitory concentration (MIC), broth microdilution; assay type: cell-based; conditions: cation-adjusted MHB II, 5 × 10^5 cfu/mL, 37 ± 1 °C, read after 18 to 20 h, n = 3
Description: as §1

[10] = 4 × MIC, 1 × 10^6 cfu/mL in MHB II, 37 °C, n = 3

For CCCCCCCC(=O)NCC(=O)N[C@@H](CCCCN)C(=O)N[C@@H](CCCCN)C(=O)N[C@@H](Cc1ccc(O)cc1)C(=O)N[C@@H](CCCNC(=N)N)C(=O)N[C@@H](CCCNC(=N)N)C(=O)N[C@@H](Cc1ccccc1)C(=O)N[C@@H](CCCNC(=N)N)C(=O)N[C@@H](Cc1c[nH]c2ccccc12)C(=O)N[C@@H](CCCCN)C(=O)N[C@@H](Cc1ccccc1)C(=O)N[C@@H](CCCCN)C(=O)NCC(=O)N[C@@H](CCCCN)C(N)=O [C8-Pep19-short] (Octanoyl-GKKYRRFRWKFKGK-NH2), the MIC value [1] was 8 and the MBC value [2] was 8 µg/mL (≈ 3.98 µM).
CCCCCCCCCC(=O)NCC(=O)N[C@@H](CCCCN)C(=O)N[C@@H](CCCCN)C(=O)N[C@@H](Cc1ccc(O)cc1)C(=O)N[C@@H](CCCNC(=N)N)C(=O)N[C@@H](CCCNC(=N)N)C(=O)N[C@@H](Cc1ccccc1)C(=O)N[C@@H](CCCNC(=N)N)C(=O)N[C@@H](Cc1c[nH]c2ccccc12)C(=O)N[C@@H](CCCCN)C(=O)N[C@@H](Cc1ccccc1)C(=O)N[C@@H](CCCCN)C(=O)NCC(=O)N[C@@H](CCCCN)C(N)=O [C10-Pep19-short] (Decanoyl-GKKYRRFRWKFKGK-NH2) gave an MIC value [1] of 4 and an MBC value [2] of 4 µg/mL (≈ 1.96 µM).
CCCCCCCCCCCC(=O)NCC(=O)N[C@@H](CCCCN)C(=O)N[C@@H](CCCCN)C(=O)N[C@@H](Cc1ccc(O)cc1)C(=O)N[C@@H](CCCNC(=N)N)C(=O)N[C@@H](CCCNC(=N)N)C(=O)N[C@@H](Cc1ccccc1)C(=O)N[C@@H](CCCNC(=N)N)C(=O)N[C@@H](Cc1c[nH]c2ccccc12)C(=O)N[C@@H](CCCCN)C(=O)N[C@@H](Cc1ccccc1)C(=O)N[C@@H](CCCCN)C(=O)NCC(=O)N[C@@H](CCCCN)C(N)=O [C12-Pep19-short] (Lauroyl-GKKYRRFRWKFKGK-NH2) showed an MIC value [1] of 4 and an MBC value [2] of 4 µg/mL (≈ 1.94 µM).
Compound CCCCCCCCCCCCCC(=O)NCC(=O)N[C@@H](CCCCN)C(=O)N[C@@H](CCCCN)C(=O)N[C@@H](Cc1ccc(O)cc1)C(=O)N[C@@H](CCCNC(=N)N)C(=O)N[C@@H](CCCNC(=N)N)C(=O)N[C@@H](Cc1ccccc1)C(=O)N[C@@H](CCCNC(=N)N)C(=O)N[C@@H](Cc1c[nH]c2ccccc12)C(=O)N[C@@H](CCCCN)C(=O)N[C@@H](Cc1ccccc1)C(=O)N[C@@H](CCCCN)C(=O)NCC(=O)N[C@@H](CCCCN)C(N)=O [C14-Pep19-short] (Myristoyl-GKKYRRFRWKFKGK-NH2) has an MIC value [1] of 8 and an MBC value [2] of 8 µg/mL (≈ 3.82 µM).
With CCCCCCCCCCCCCCCC(=O)NCC(=O)N[C@@H](CCCCN)C(=O)N[C@@H](CCCCN)C(=O)N[C@@H](Cc1ccc(O)cc1)C(=O)N[C@@H](CCCNC(=N)N)C(=O)N[C@@H](CCCNC(=N)N)C(=O)N[C@@H](Cc1ccccc1)C(=O)N[C@@H](CCCNC(=N)N)C(=O)N[C@@H](Cc1c[nH]c2ccccc12)C(=O)N[C@@H](CCCCN)C(=O)N[C@@H](Cc1ccccc1)C(=O)N[C@@H](CCCCN)C(=O)NCC(=O)N[C@@H](CCCCN)C(N)=O [C16-Pep19-short] (Palmitoyl-GKKYRRFRWKFKGK-NH2) the MIC [3] was “higher MIC values”, the MIC value [1] was over 64 and the MIC [1] was “higher MIC values”. For the same compound, the MBC value [2] was over 64 µg/mL.
In the case of CCCCCCCCCCCCCCCCCC(=O)NCC(=O)N[C@@H](CCCCN)C(=O)N[C@@H](CCCCN)C(=O)N[C@@H](Cc1ccc(O)cc1)C(=O)N[C@@H](CCCNC(=N)N)C(=O)N[C@@H](CCCNC(=N)N)C(=O)N[C@@H](Cc1ccccc1)C(=O)N[C@@H](CCCNC(=N)N)C(=O)N[C@@H](Cc1c[nH]c2ccccc12)C(=O)N[C@@H](CCCCN)C(=O)N[C@@H](Cc1ccccc1)C(=O)N[C@@H](CCCCN)C(=O)NCC(=O)N[C@@H](CCCCN)C(N)=O [C18-Pep19-short] (Stearoyl-GKKYRRFRWKFKGK-NH2), the MIC value [4] is reported as over 64 µg/mL, the MIC [3] is reported as “higher MIC values” and the MIC value [1] is reported as over 64. The MIC [1] was “higher MIC values”, the MBC value [2] was over 64 µg/mL and the MBC value [5] was over 64 µg/mL.
For N=C(N)NCCC[C@H](NC(=O)[C@H](Cc1ccc(O)cc1)NC(=O)[C@H](CCCCN)NC(=O)[C@H](CCCCN)NC(=O)[C@H](CS)NC(=O)CN)C(=O)N[C@@H](CCCNC(=N)N)C(=O)N[C@@H](Cc1ccccc1)C(=O)N[C@@H](CCCNC(=N)N)C(=O)N[C@@H](Cc1c[nH]c2ccccc12)C(=O)N[C@@H](CCCCN)C(=O)N[C@@H](Cc1ccccc1)C(=O)N[C@@H](CCCCN)C(=O)NCC(=O)N[C@@H](CCCCN)C(=O)N[C@@H](Cc1ccccc1)C(=O)N[C@@H](Cc1c[nH]c2ccccc12)C(=O)N[C@@H](Cc1ccccc1)C(=O)N[C@@H](Cc1c[nH]c2ccccc12)C(=O)NCC(N)=O [Pep19-2.5, reference compound], the MIC value [1] was over 64 and the MBC value [2] was over 64 µg/mL.
Work on C11-GKKYRRFRWKFKGK [C11-Pep19-short] yielded an MIC value [4] of 4 µg/mL, an MIC value [1] of 4 and an MBC value [2] of 4 µg/mL. For the same compound, the MBC value [5] was 4 µg/mL, the “change in number of cfu/mL” value ([6]; n = 3) was “only a small decrease in the number of cfu/mL” and the “time until all bacteria killed” value ([6]; 1 × MIC, n=3) was 4 h. The “time until all bacteria killed” value ([6]; 2 × MIC, n=3) was 0.5 h, the “time until all bacteria killed / no detectable cfu” value [6, 10] was at most 30 min and the mode of action ([6]; 4 × MIC, n = 3) was “fast and bactericidal mode of action”. For the same compound, the solubility in water [7] was “high solubility in water” and the “speed of elimination compared among the peptides” value [8] was “faster excretion from the body”.
GKKYRRFRWKFKGK-NH2 [Pep19-short] showed an MIC [9] of over 64 µg/mL, an MIC [3] of over 64 µg/mL and an MIC value [1] of 64. For the same compound, the MIC [1] was 64 µg/mL, the MBC value [2] was 64 µg/mL and the “speed of elimination compared among the peptides” value [8] was “no difference in the elimination time”.
In the case of bacitracin, the “change in number of cfu/mL” value ([6]; n = 3) is reported as “only a small decrease in the number of cfu/mL”, the mode of action ([6]; 2 × MIC, n=3) is reported as “bacteriostatic mode of action” and the “time until no detectable cfu” value [6, 10] is reported as 8 h. For the same compound, the mode of action ([6]; 4 × MIC, n = 3) was “bactericidal activity”.
